Here are results for 62 sequences from patent publication US8637050B2, “Peptide vaccines against group A streptococci” (The United States of America, as represented by the …, priority 2001, dated 2014).

Assay [1] deals with rabbit sera prepared against whole M protein. The assay can be described thus: ELISA: peptide recognition by anti-M protein rabbit sera. The class given is binding. How it is done: Overlapping peptides representing each M type were assessed for their immunogenicity using ELISA and dot-immunoblot.
(§1) Levels of anti-M protein antibodies in mouse sera were determined by an enzyme-linked immunosorbent assay (ELISA) using either synthetic peptides or whole M protein as antigen. Microtiter plates (DYNEX Immulon 2 HB) were coated with 10 μg/ml antigen in 10 mM phosphate-buffered saline (PBS) at 4° C. overnight. Plates were rinsed three times with wash buffer (0.05% Tween 20 in 10 mM PBS, pH 7.2) and blocked with 1% BSA in PBS for one hour at 37° C. The appropriate test sera were applied at a starting dilution of 1:1000 and serially diluted two fold down the plate in PBS. Plates were incubated at 37° C. for 30 minutes and subsequently rinsed three times. Goat anti-rabbit or goat anti-mouse Ig-peroxidase conjugate diluted 1:10,000 in PBS was added to all wells and incubated for two hours at 37° C. Plates were rinsed three times with wash buffer and freshly prepared TMB peroxidase (Kirkegaard and Perry Laboratories) was added. Reactions were quenched with 0.18 M H2SO4 after 30 minutes at room temperature and OD450 was measured with a Labsystems Multiskan plate reader using Ascent software. ELISA titers are expressed as the reciprocal of the last dilution which gave a reading OD450>0.10.
The immunoreactivity of several synthetic peptides was determined by ELISA using rabbit sera prepared against whole M protein. The synthetic peptides are representative of relatively small portions of the M protein N-terminus; therefore, it was advantageous to determine if the epitopes contained within particular peptides were immunoreactive with sera prepared against whole M protein. It was shown that the whole anti-M protein rabbit sera of the respective serotypes could bind to each of the synthetic peptides within that serotype. However, some peptides were more highly immunoreactive than others, thus being better suited for use in the animal studies.
Background: In an ELISA, binding on a coated surface is turned into a signal by an enzyme label.

Assay [2] concerns anti-M protein antibodies in mouse sera. As to the kind of experiment: ELISA of sera of mice immunized s.c. with peptide in alum (immunogenicity). In kind it is in vivo, mice (Swiss Webster). How it is done:
as §1
Mice (6 week old female Swiss Webster, Harley-Sprague) were immunized subcutaneously (s.c.) with either the peptide in alum or alum alone for control groups. Peptides were rotated in the alum mixture for 2 hours at 4° C. and stored at 4° C. overnight prior to use.

CAEKQRLEDLGQKFERLKQRS [Peptide M12-2]: in assay [1], the “immunoreactivity by ELISA using rabbit sera prepared against whole M protein” value (“immunoreactivity by ELISA” for short) is given as “confirmed”. Also, in assay [2], the “ELISA (elicitation of antibodies)” value is recorded as “yes (weak)”. For the sequence CNGDGNPREVIEDLAANNPAME [Peptide M1-4], the “immunoreactivity of peptide with anti-M protein rabbit sera (ELISA)” value in assay [1] (rabbit sera against whole M protein of the respective serotype) was “highest reactivity”. In assay [2], the “ELISA (elicitation of antibodies)” value is “no”. As to CNHQLTVENKKLKTDKEQLTKE [Peptide M18-6], the “immunoreactivity by ELISA” value in assay [1] was “confirmed”. On the same count and under the same terms, the value for CKQRSELYLQQYYDNKSNRYK [Peptide M12-6] was “confirmed”; that for CLEEERGEHLDKIDELKEELK [Peptide M89-8] was “confirmed”. Consider CELYNKIQELEEGKAELFDKLEK [Peptide M73-3], for which the “immunoreactivity by ELISA” value in assay [1] is reported as “confirmed”. Still for that read-out and setting: with CDSSSRDITEAGVSKFWKSKFD [Peptide M82-1] the entry was “confirmed”. On to CRSVSTNSGSVSTPYNNLLNE [Peptide M92-2], for which the “immunoreactivity by ELISA” value in assay [1] is “confirmed”. The same measure, in the same setting: the value for CKDEVLSKFSVPGHVWAHERE [Peptide M101-2] was “confirmed”; that for CNGDGNPREVIEDLAANNPAIQ [Peptide M1-1] was “confirmed”. As for CLDQVTQLYNKHNSNYQQYSA [Peptide M3-4], the “immunoreactivity by ELISA” value in assay [1] is on record as “confirmed”. Also, in assay [2], the “ELISA (elicitation of antibodies)” value is recorded as “no”. Regarding CDNQSPAPVKKEAKKLNEAE [Peptide M73-1], the “immunoreactivity by ELISA” value in assay [1] is recorded as “confirmed”. Same read-out and setting: the value for CEIQNHQLTVENKKLKTDKEQ [Peptide M18-3] was “confirmed”. In the case of CKFERLKRRSELYLQQYYDNK [Peptide M12-5], the “immunoreactivity by ELISA” value in assay [1] is on record as “confirmed”.

Consider CDSDNSDNINRSVSVKDNEKE [Peptide M89-7], for which the “immunoreactivity by ELISA” value in assay [1] is “confirmed”.

Consider CLNKLDKVEEEHKKDHEQLEK [Peptide M77-5], for which the “immunoreactivity by ELISA” value in assay [1] is listed as “confirmed”. Still for that read-out and setting: the value for CESSNNAESSNISQESKLINT [Peptide M22-1] was “confirmed”; that for CEEHEKVTQAREAVIREMQQR [Peptide M33-1] was “confirmed”. Still for that read-out and setting: with CDNQSPALVKKEAKKLNEAEL [Peptide M73-4] the entry was “confirmed”; with “CEGVSVGSDASLHNRITDLEEEREK [Peptide M77-1]”, “confirmed”; with CENSMLQANNDNLTDQNKNLTD [Peptide M6-4], “confirmed”. On the same count and under the same terms, the value for CDSDNINRFVSVKDNEKELHN [Peptide M89-6] was “confirmed”; that for CEMQQRGTNFGPLLASTMRDNH [Peptide M33-3] was “confirmed”; that for CDDRSVSTNSGSVSTPYNNLLNE [Peptide M92-1] was “confirmed”. On to CDNINRSVSVKDNEKELHNKIAD [Peptide M89-2], for which the “immunoreactivity by ELISA” value in assay [1] is on record as “confirmed”.

As to CDENKTLREKQEEYITKIQNE [Peptide M11-3], the “immunoreactivity by ELISA” value in assay [1] is reported as “confirmed”. CELHNKIADLEEERGAHLDKID [Peptide M89-5]: the “immunoreactivity by ELISA” value in assay [1] is “confirmed”.

Consider “CADHPSYTAAKDEVLSKFSVPGH [Peptide M101-1]”, for which the “immunoreactivity by ELISA” value in assay [1] was “confirmed”. On to CNGDGNPRVVIEDLAANNPAIQ [Peptide M1-7], for which the “immunoreactivity by ELISA” value in assay [1] is recorded as “confirmed”.

As for CVPVKKEATKLSEAELYNKIQ [st2967-2], the “immunoreactivity by ELISA” value in assay [1] is on record as “confirmed”. In the case of CIQNIRLRHENKDLKARLENA [Peptide M1-2], the “immunoreactivity by ELISA” value in assay [1] was “confirmed”. Also, the “ELISA (elicitation of antibodies)” value in assay [2] was “no”. As for CNDELRENYRRTLDKFNTEQ [Peptide M75-3], in assay [1], the “immunoreactivity by ELISA” value is “confirmed”. In the case of CKAWKSENDELRENYRKTLDK [Peptide M75-4], in assay [1], the “immunoreactivity by ELISA” value was “confirmed”. With CRDITEAGVSKFWKSKFDAEQN [Peptide M82-2], the “immunoreactivity by ELISA” value in assay [1] was “confirmed”.

As for CLEDLGQKFERLKQRSELYLQ [Peptide M12-3], the “immunoreactivity by ELISA” value in assay [1] is given as “confirmed”. The “ELISA (elicitation of antibodies)” value in assay [2] is recorded as “no”.

Take CEELKVEREKYLSYADDKEKDPQ [Peptide M4-4]: the “immunoreactivity by ELISA” value in assay [1] is recorded as “confirmed”.

Consider CRSDARSVNGEFPRHVKLKNE [Peptide M3-9], for which the “immunoreactivity by ELISA” value in assay [1] is on record as “confirmed”.

With CDKLRLEKEELKTDLQKKERE [Peptide M101-4], the “immunoreactivity by ELISA” value in assay [1] is “confirmed”. Same read-out and setting: with CLNQVTQLHTKHNSNYQQYNA [Peptide M3-8] the entry was “confirmed”; with CTVTRGTVNDPQRAKEALDKYE [Peptide M5-5], “confirmed”.

As to CDNQSPAPAPVKKEAKKLNEAE [Peptide M73-5], in assay [1], the “immunoreactivity by ELISA” value is recorded as “confirmed”. The same measure, in the same setting: with CRENYRRTLDKFNTEQGKTTR [Peptide M75-5] the entry was “confirmed”; with CKGTNVSADLYNSLWDENKT [Peptide M11-2], “confirmed”; with CEEERTFTELPYEARYKAWKSE [Peptide M75-1], “confirmed”.

As for CAAPLTRATADNKDELIKRAND [Peptide M18-1], in assay [1], the “immunoreactivity by ELISA” value was “confirmed”. Take CNGDGNPREVIEDLAANNPVIQ [Peptide M1-6]: in assay [1], the “immunoreactivity by ELISA” value is “confirmed”.

With CELHNEIADLEEERGEHLDKID [Peptide M89-4], the “immunoreactivity by ELISA” value in assay [1] is “confirmed”. Still for that read-out and setting: the value for CENHDLKTKNEGLKTENEGLK [Peptide M5-3] was “confirmed”; that for CAGQSAPKGTNVSADLYNSLWDE [Peptide M11-1] was “confirmed”; that for CEYDDLLAKHGELLSEYDALK [Peptide M92-3] was “confirmed”. On to CRVFPRGTVENPDKARELLNK [Peptide M6-1], for which the “immunoreactivity by ELISA” value in assay [1] is “confirmed”. Same read-out and setting: with CELTLQQKYDALTNENKSLRRE [Peptide M59-2] the entry was “confirmed”; with CRATADNKDELIKRANDYEIQ [Peptide M18-2], “confirmed”.

As for CSELYLQQYYDNKSNGYKGDW [Peptide M12-7], the “immunoreactivity by ELISA” value in assay [1] is recorded as “confirmed”. As for CDSSREVTNELAASMWKAQAD [Peptide M58-4], in assay [1], the “immunoreactivity by ELISA” value was “confirmed”.

For the sequence CHPDVVAARESVLNNVRVPGT [Peptide M43-2], in assay [1], the “immunoreactivity by ELISA” value is given as “confirmed”. Same read-out and setting: the value for CNSKNPAPAPASAVPVKKEATK [st2967-1] was “confirmed”. Regarding CREVTNELTASMWKAQADSAK [Peptide M58-2], the “immunoreactivity by ELISA” value in assay [1] was “confirmed”.

On to CTEHEKLRDEYYTLIDAKEEE [Peptide M28-5], for which, in assay [1], the “immunoreactivity by ELISA” value was “confirmed”. Take CTVTRGTINDPQRAKEALDKYE [Peptide M5-1]: in assay [1], the “immunoreactivity by ELISA” value was “confirmed”. On the same count and under the same terms, the value for CHDLKTKNEGLKTENEGLKTEN [Peptide M5-9] was “confirmed”; that for CKKEAKKLNEAELYNKIQELE [Peptide M73-2] was “confirmed”.
